Measurements: the CheMixHub viscosity set
± gives the uncertainty stated by the source.

Assay: xn = mol fraction of the nth substance listed

ClC(Cl)(Cl)Cl + Cc1ccccc1
viscosity [mPa·s], 101 kPa
Conditions	293.15 K	298.15 K	303.15 K	313.15 K
x1 = 0.1022	0.6227 ± 0.017	0.5867 ± 0.016	0.5527 ± 0.015	0.4932 ± 0.013
x1 = 0.1977	0.6508 ± 0.017	0.6111 ± 0.016	0.5749 ± 0.015	0.5126 ± 0.014
x1 = 0.3029	0.6875 ± 0.018	0.6446 ± 0.017	0.606 ± 0.016	0.5394 ± 0.014
x1 = 0.4043	0.7215 ± 0.019	0.6753 ± 0.018	0.634 ± 0.017	0.5628 ± 0.015
x1 = 0.4982	0.7585 ± 0.02	0.712 ± 0.019	0.6656 ± 0.018	0.5897 ± 0.016
x1 = 0.5988	0.7983 ± 0.021	0.7461 ± 0.02	0.6988 ± 0.018	0.6181 ± 0.016
x1 = 0.7091	0.8428 ± 0.022	0.7861 ± 0.021	0.7353 ± 0.019	0.6485 ± 0.017
x1 = 0.8107	0.8905 ± 0.024	0.8298 ± 0.022	0.7755 ± 0.021	0.6831 ± 0.018
x1 = 0.916	0.9415 ± 0.025	0.88 ± 0.023	0.8249 ± 0.022	0.719 ± 0.019
x2 = 0.1	–	0.8643 ± 0.011	–	–
x2 = 0.2	–	0.8211 ± 0.01	–	–
x2 = 0.3	–	0.7802 ± 0.0098	–	–
x2 = 0.4	–	0.7415 ± 0.0094	–	–
x2 = 0.5	–	0.7049 ± 0.0089	–	–
x2 = 0.6	–	0.6705 ± 0.0085	–	–
x2 = 0.7	–	0.6381 ± 0.0081	–	–
x2 = 0.8	–	0.6078 ± 0.0077	–	–
x2 = 0.9	–	0.5794 ± 0.0074	–	–

ClC(Cl)(Cl)Cl + CCCO
101 kPa
Conditions	viscosity [mPa·s]
298.15 K, x2 = 0.0685	0.89 ± 0.009
298.15 K, x2 = 0.1	0.903 ± 0.024
298.15 K, x2 = 0.1294	0.909 ± 0.009
298.15 K, x2 = 0.2085	0.962 ± 0.009
298.15 K, x2 = 0.22	0.946 ± 0.025
298.15 K, x2 = 0.2859	1.02 ± 0.01
298.15 K, x2 = 0.31	1.012 ± 0.027
298.15 K, x2 = 0.39	1.089 ± 0.029
298.15 K, x2 = 0.3964	1.113 ± 0.011
298.15 K, x2 = 0.5849	1.317 ± 0.012
298.15 K, x2 = 0.63	1.409 ± 0.037
298.15 K, x2 = 0.72	1.554 ± 0.041
298.15 K, x2 = 0.79	1.667 ± 0.044
298.15 K, x2 = 0.8446	1.724 ± 0.016
298.15 K, x2 = 0.8705	1.769 ± 0.016
298.15 K, x2 = 0.8955	1.808 ± 0.017
298.15 K, x2 = 0.91	1.88 ± 0.049
298.15 K, x2 = 0.9511	1.877 ± 0.017
303.15 K, x2 = 0.0615	0.8319 ± 0.0067
303.15 K, x2 = 0.0651	0.8324 ± 0.0067
303.15 K, x2 = 0.1059	0.8333 ± 0.0067
303.15 K, x2 = 0.2377	0.8752 ± 0.007
303.15 K, x2 = 0.3576	0.9546 ± 0.0076
303.15 K, x2 = 0.4503	1.041 ± 0.0083
303.15 K, x2 = 0.5592	1.163 ± 0.0091
303.15 K, x2 = 0.6985	1.339 ± 0.01
303.15 K, x2 = 0.7899	1.461 ± 0.011
303.15 K, x2 = 0.8376	1.524 ± 0.012
303.15 K, x2 = 0.8976	1.603 ± 0.012
303.15 K, x2 = 0.9626	1.682 ± 0.013
303.15 K, x2 = 0.9633	1.684 ± 0.013
308.15 K, x2 = 0.0685	0.775 ± 0.008
308.15 K, x2 = 0.1294	0.785 ± 0.008
308.15 K, x2 = 0.2085	0.817 ± 0.008
308.15 K, x2 = 0.2859	0.849 ± 0.008
308.15 K, x2 = 0.3964	0.905 ± 0.009
308.15 K, x2 = 0.5849	1.071 ± 0.01
308.15 K, x2 = 0.8446	1.383 ± 0.013
308.15 K, x2 = 0.8705	1.402 ± 0.013
308.15 K, x2 = 0.8955	1.435 ± 0.014
308.15 K, x2 = 0.9511	1.487 ± 0.014
318.15 K, x2 = 0.0685	0.676 ± 0.007
318.15 K, x2 = 0.1294	0.686 ± 0.007
318.15 K, x2 = 0.2085	0.702 ± 0.007
318.15 K, x2 = 0.2859	0.735 ± 0.007
318.15 K, x2 = 0.3964	0.772 ± 0.008
318.15 K, x2 = 0.5849	0.882 ± 0.009
318.15 K, x2 = 0.8446	1.109 ± 0.011
318.15 K, x2 = 0.8705	1.128 ± 0.011
318.15 K, x2 = 0.8955	1.152 ± 0.011
318.15 K, x2 = 0.9511	1.196 ± 0.011

CCCC(C)=O + CCC(C)=O
viscosity [mPa·s], 101 kPa
Conditions	x2 = 0.2	x2 = 0.4	x2 = 0.6	x2 = 0.8
293.15 K	0.483 ± 0.005	0.461 ± 0.005	0.439 ± 0.005	0.418 ± 0.005
313.15 K	0.388 ± 0.004	0.372 ± 0.004	0.357 ± 0.004	0.341 ± 0.004

ClC(Cl)(Cl)Cl + CC(C)(C)O
viscosity [mPa·s], 101 kPa
Conditions	298.15 K	308.15 K	318.15 K
x2 = 0.0318	0.886 ± 0.009	0.768 ± 0.008	0.674 ± 0.007
x2 = 0.044	0.888 ± 0.009	0.77 ± 0.008	0.674 ± 0.007
x2 = 0.086	0.91 ± 0.009	0.78 ± 0.008	0.678 ± 0.007
x2 = 0.1644	0.958 ± 0.009	0.801 ± 0.008	0.693 ± 0.007
x2 = 0.2487	1.007 ± 0.01	0.853 ± 0.008	0.712 ± 0.007
x2 = 0.3632	1.086 ± 0.01	0.897 ± 0.009	0.751 ± 0.007
x2 = 0.4833	1.221 ± 0.012	0.987 ± 0.01	0.806 ± 0.008
x2 = 0.6052	1.43 ± 0.014	1.118 ± 0.011	0.892 ± 0.009
x2 = 0.7156	1.74 ± 0.017	1.303 ± 0.013	1.007 ± 0.01
x2 = 0.8301	2.392 ± 0.023	1.67 ± 0.016	1.222 ± 0.012
x2 = 0.9132	3.045 ± 0.03	1.98 ± 0.02	1.381 ± 0.013

CCCC(C)=O + C1CCCCC1
viscosity [mPa·s]
Conditions	293.15 K	298.15 K	303.15 K
101.32 kPa, x2 = 0.1524	–	–	0.474 ± 0.004
101.32 kPa, x2 = 0.2942	–	–	0.496 ± 0.004
101.32 kPa, x2 = 0.3752	–	–	0.507 ± 0.004
101.32 kPa, x2 = 0.4326	–	–	0.517 ± 0.004
101.32 kPa, x2 = 0.5075	–	–	0.532 ± 0.004
101.32 kPa, x2 = 0.5951	–	–	0.555 ± 0.004
101.32 kPa, x2 = 0.7377	–	–	0.607 ± 0.004
101.32 kPa, x2 = 0.8891	–	–	0.695 ± 0.004
101.33 kPa, x2 = 0.0483	0.5 ± 0.009	0.473 ± 0.009	0.447 ± 0.008
101.33 kPa, x2 = 0.0981	0.506 ± 0.009	0.477 ± 0.009	0.452 ± 0.008
101.33 kPa, x2 = 0.1932	0.516 ± 0.009	0.486 ± 0.009	0.458 ± 0.008
101.33 kPa, x2 = 0.296	0.537 ± 0.01	0.504 ± 0.009	0.476 ± 0.009
101.33 kPa, x2 = 0.3957	0.562 ± 0.01	0.528 ± 0.009	0.498 ± 0.009
101.33 kPa, x2 = 0.4987	0.594 ± 0.01	0.554 ± 0.01	0.52 ± 0.009
101.33 kPa, x2 = 0.5982	0.625 ± 0.011	0.591 ± 0.01	0.548 ± 0.01
101.33 kPa, x2 = 0.7002	0.68 ± 0.012	0.632 ± 0.011	0.594 ± 0.01
101.33 kPa, x2 = 0.8051	0.748 ± 0.012	0.694 ± 0.012	0.645 ± 0.011
101.33 kPa, x2 = 0.9024	0.847 ± 0.014	0.781 ± 0.013	0.724 ± 0.012
101.33 kPa, x2 = 0.9503	0.898 ± 0.015	0.826 ± 0.014	0.762 ± 0.013

CCOC(=O)c1ccccc1O + CCCCCOC(C)=O
Conditions	viscosity [mPa·s]
298.15 K, 101 kPa, x2 = 0.5	1.045 ± 0.01

CC(C)[O-].CC(C)[O-].CC(C)[O-].CC(C)[O-].[Ti+4] + Cc1ccc(C)cc1
viscosity [mPa·s], 101.3 kPa
Conditions	x1 = 0.0401	x1 = 0.0871	x1 = 0.1382	x1 = 0.1994	x1 = 0.2719	x1 = 0.3593	x1 = 0.4654	x1 = 0.5987	x1 = 0.77
293.15 K	0.671 ± 0.041	0.7098 ± 0.043	0.7652 ± 0.046	0.8373 ± 0.051	0.9143 ± 0.055	1.042 ± 0.063	1.235 ± 0.075	1.53 ± 0.093	2.053 ± 0.12
303.15 K	0.5881 ± 0.036	0.6215 ± 0.038	0.6649 ± 0.04	0.7153 ± 0.043	0.7695 ± 0.047	0.855 ± 0.052	0.9724 ± 0.059	1.137 ± 0.069	1.398 ± 0.085
313.15 K	0.5226 ± 0.032	0.5494 ± 0.033	0.5813 ± 0.035	0.6238 ± 0.038	0.6641 ± 0.04	0.7258 ± 0.044	0.8058 ± 0.049	0.9111 ± 0.055	1.063 ± 0.064
323.15 K	0.4655 ± 0.028	0.4896 ± 0.03	0.5162 ± 0.031	0.5501 ± 0.034	0.5849 ± 0.036	0.6326 ± 0.038	0.6922 ± 0.042	0.7664 ± 0.047	0.871 ± 0.053
